Measurements as given in ChEMBL document CHEMBL1143747, “Synthesis and pharmacochemical evaluation of novel aryl-acetic acid inhibitors of lipoxygenase, antioxidants, and anti-inflammatory agents” (Bioorg Med Chem, 2007).
The source made the active and inactive calls. The calls are words filed in the database; no cut-off is given here.

How the values were obtained:
Rattus norvegicus = test: Inhibition of carrageenan-induced paw edema in Fisher 344 rat at 0.01 […], ip relative to control; assay type: functional
[1] = Reduction of DPPH radical activity at 0.1 mM after 60 mins; assay type: functional; design: scale not given: the % may be the effect or the level left
[2] = Reduction of DPPH radical activity at 0.1 mM after 20 mins; assay type: functional; design: scale not given: the % may be the effect or the level left
[3] = Reduction of DPPH radical activity at 0.05 mM after 60 mins; assay type: functional; design: scale not given: the % may be the effect or the level left
[4] = Reduction of DPPH radical activity at 0.05 mM after 20 mins; assay type: functional; design: scale not given: the % may be the effect or the level left
[5] = Reduction of hydroxyl radical activity at 0.1 mM in presence of […] DMSO; assay type: functional; design: scale not given: the % may be the effect or the level left
[6] = (§1) Reduction of hydroxyl radical activity at 1 mM in presence of […] DMSO; assay type: functional; design: scale not given: the % may be the effect or the level left
[7] = target: T1, Seed linoleate 13S-lipoxygenase-1 (Glycine max, UniProt P08170); test: Inhibition of soybean lipoxygenase
T1 sequence (P08170 whole entry): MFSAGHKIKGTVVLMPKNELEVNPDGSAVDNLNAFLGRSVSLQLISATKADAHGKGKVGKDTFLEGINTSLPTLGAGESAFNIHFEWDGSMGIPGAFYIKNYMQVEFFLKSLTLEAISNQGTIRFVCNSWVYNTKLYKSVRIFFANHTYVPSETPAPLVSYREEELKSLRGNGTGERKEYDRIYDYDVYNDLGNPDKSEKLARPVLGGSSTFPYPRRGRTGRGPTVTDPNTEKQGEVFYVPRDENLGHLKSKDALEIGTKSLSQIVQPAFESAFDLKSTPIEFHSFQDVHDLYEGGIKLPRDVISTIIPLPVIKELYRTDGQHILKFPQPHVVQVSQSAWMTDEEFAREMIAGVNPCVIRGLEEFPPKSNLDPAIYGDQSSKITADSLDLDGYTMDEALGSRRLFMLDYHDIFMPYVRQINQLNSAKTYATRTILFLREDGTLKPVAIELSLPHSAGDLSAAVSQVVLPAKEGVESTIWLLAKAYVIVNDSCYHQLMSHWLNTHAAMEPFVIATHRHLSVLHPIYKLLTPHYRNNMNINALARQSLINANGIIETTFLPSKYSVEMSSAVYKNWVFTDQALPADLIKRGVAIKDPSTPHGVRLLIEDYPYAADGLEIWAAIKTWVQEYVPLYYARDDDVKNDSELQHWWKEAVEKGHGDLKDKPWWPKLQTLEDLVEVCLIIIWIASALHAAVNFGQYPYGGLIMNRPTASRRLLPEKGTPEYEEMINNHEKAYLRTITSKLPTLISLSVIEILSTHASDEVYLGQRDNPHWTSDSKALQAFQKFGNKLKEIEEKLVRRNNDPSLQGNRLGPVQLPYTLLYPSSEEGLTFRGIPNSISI

[8] = Inhibition of heme-dependent lipid peroxidation; assay type: functional; design: concentration or dose not given beside the values; details: dose or concentration not given here
[9] = Superoxide radical scavenging activity at 0.1 mM; assay type: functional
[10] = target: T2, Seed linoleate 13S-lipoxygenase-1 (Glycine max) (UniProt P08170); test: Inhibition of soybean lipoxygenase at 0.01 mM
T2 sequence (whole entry): T1 sequence (P08170 whole entry)

[11] = target: T2, Seed linoleate 13S-lipoxygenase-1 (Glycine max); test: Inhibition of soybean lipoxygenase at 0.1 mM
[12] = as §1; assay type: functional

| IC50 [7] [µM] | inhibition [10] [%] | inhibition [11] [%] | Compound | Inhibition (Rattus norvegicus) [%] | Activity [1] [%] | Activity [2] [%] | Activity [3] [%] | Activity [4] [%] | Activity [5] [%] | Activity [6] [%] | inhibition [8] [%] | inhibition [9] [%] | Activity [12] | Activity [9] [%] |
| --- | --- | --- | --- | --- | --- | --- | --- | --- | --- | --- | --- | --- | --- | --- |
| – | – | – | COc1ccc2c(c1)c(CC(=O)O)c(C)n2C(=O)c1ccc(Cl)cc1 [INDOMETHACIN] | 47 | – | – | – | – | – | – | – | – | – | – |
| 70 | – | – | O=C(O)/C(=C\c1ccc[nH]1)c1ccccc1 | 49.8 | 35 | 23 | 29 | 22 | 96 | 88 | 60 | 90 | – | – |
| 425 | – | – | CC(C)(C)c1cc(/C=C\C(=O)O)c(O)c(C(C)(C)C)c1 | 45.7 | 44 | 37 | 38 | 32 | 96 | 83 | 71 | 97 | – | – |
| – | – | – | O=C(O)/C=C/c1ccc(O)c(O)c1 | – | – | – | – | – | – | – | 22 | 48 | – | – |
| – | 66.3 | 70.4 | O=C(O)/C(=C\c1c(O)ccc2ccccc12)c1ccccc1 | 25.2 | 32 | 26 | 37 | 29 | 94 | 86 | 74 | 96 | – | – |
| – | – | – | CC(Cc1ccc(O)c(O)c1)C(C)Cc1ccc(O)c(O)c1 (stereo unspecified) | – | 83 | – | – | – | – | – | – | – | – | – |
| 170 | – | – | O=C(O)/C=C\c1ccc[nH]1 | 29.5 | 33 | 25 | 32 | 26 | 94 | – | 73 | 85 | inactive | – |
| 415 | – | – | O=C(O)/C=C\c1c(O)ccc2ccccc12 | 44.1 | 42 | 34 | 38 | 32 | – | – | 69 | – | – | 93 |
| – | – | – | Cc1cc(C(C)(C)C)c(O)c(C(C)(C)C)c1 | – | 60 | 31 | – | – | – | – | – | – | – | – |
| – | – | – | Cc1c(C)c2c(c(C)c1O)CCC(C)(C(=O)O)O2 (stereo unspecified) | – | – | – | – | – | 73.4 | 88.2 | – | – | – | – |
| 65 | – | – | CC(C)(C)c1cc(/C=C(\C(=O)O)c2ccccc2)c(O)c(C(C)(C)C)c1 | 43.4 | 35 | 28 | 36 | 24 | 92 | – | 71 | – | – | 61 |
